{
  "source": "patent US12281121B2",
  "about": "“N-containing heteroaryl derivative and pharmaceutical composition comprising same as active ingredient for prevention or treatment of cancer” (VORONOI Inc., priority 2019, dated 2025)",
  "key": {"[1]": {"biological_target": "T1, RET (WT) (Homo sapiens, UniProt P07949)", "T1 construct": "human RET (658-end, SIGNALCHEM); purchased SIGNALCHEM", "T1 sequence (P07949 658-1114 limits assumed)": "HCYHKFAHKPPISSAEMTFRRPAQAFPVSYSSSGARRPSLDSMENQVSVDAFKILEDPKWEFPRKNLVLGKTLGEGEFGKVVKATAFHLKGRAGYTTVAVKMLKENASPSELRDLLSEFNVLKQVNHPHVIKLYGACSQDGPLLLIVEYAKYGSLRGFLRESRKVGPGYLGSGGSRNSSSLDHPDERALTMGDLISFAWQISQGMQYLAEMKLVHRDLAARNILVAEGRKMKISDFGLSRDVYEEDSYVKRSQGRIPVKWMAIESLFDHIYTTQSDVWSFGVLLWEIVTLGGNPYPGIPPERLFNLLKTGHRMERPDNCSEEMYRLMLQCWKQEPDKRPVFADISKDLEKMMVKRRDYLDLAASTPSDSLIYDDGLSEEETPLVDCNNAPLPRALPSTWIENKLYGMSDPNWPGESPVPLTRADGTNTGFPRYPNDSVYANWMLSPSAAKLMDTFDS", "assay": "RET enzyme inhibitory ability, ADP-Glo kinase assay", "type": "biochemical", "conditions": "ATP 10 μM, 25° C., 1 hour", "method": "The Example compound was reacted with a purified human RET (658-end, SIGNALCHEM) enzyme to evaluate the enzyme inhibitory ability by the following method. As a reaction buffer, a composition of 40 mM Tris-HCl pH 7.4, 20 mM MgCl2, 0.5 mg/mL BSA, and 50 μM DTT was used, and all experimental materials were reacted on the reaction buffer. After the human RET (658-end, 0.8 ng) enzyme was reacted with purified ATP (10 μM) and a specific substrate solution at 25° C. for 1 hour during the experiment, the enzyme activity was confirmed using in vitro ADP-Glo™ kinase assay (Promega). Luminescence was measured by reacting the enzyme activity reaction solution, the ADP-Glo reaction solution, and the enzyme activity detection solution at a ratio of 2:2:1. The degree of inhibition of enzyme activity according to the treatment concentration of each compound was calculated based on the […] of the enzyme activity of a solvent control group in which a compound was not treated, and in this case, the concentration of each compound which suppresses the […] enzyme activity by 50% was determined as an IC50 (nM) value. The IC50 (nM) of each compound was determined by 3 datasets and obtained using Prism (version 7.01, GraphPad) software.\nIn the enzyme assay column, RET (WT) is a non-mutated form, RET (V804M) is a mutated form in which the V amino acid at position 804 of the RET is substituted with M, and CCDC6-RET is a form in which the RET (WT) gene and CCDC6 gene are fused."}, "[2]": {"test_system": "Ba/F3 (naive) cells", "assay": "Cell proliferation inhibition, CellTiter-Glo", "type": "cell-based", "conditions": "Mus musculus, BaF3; Ba/F3 not transduced, 72 hours", "method": "(§1) Among lung cancer cell lines, which express RET fusion genes, LC-2/ad cells were cultured after adding 10% FBS (HyClone) to RPMI:F12 (1:1) (Invitrogen), and F-12 (Invitrogen) supplemented with 10% FBS was used for TT cells. RPMI-1640 supplemented with 10% FBS and 5 ng/ml IL-3 (R&D Systems) was used for Ba/F3 cells. Transduced Ba/F3 cells were cultured by adding 1 ug/ml puromycin (Invitrogen) to the same medium. 24 hours before cells were treated with the compound, 3000 to 5000 cells were aliquoted into each well of a white clear bottom 96 well plate (Corning). The compound was diluted in DMSO (3-fold dilution, a total of 12 concentrations) and the compound was injected by 0.5 μl such that the final concentration was 0.3 nM to 50 μM. For the measurement of living cells, 72 hours after the compound treatment, the cells were stored at room temperature for 10 minutes using a CellTiter-Glo luminescent cell-viability agent (Promega), and then the luminescence intensity was measured using a reader (SynergyNeo, Biotek). Each experiment was repeated in triplicate. The result value was calculated by the cell growth ratio (%) compared to the control. A graph was drawn using the GraphPad Prism version 5.0 program, and a GI50 (nM) value was calculated.\n(§2) In the cell assay column, LC-2/ad (with CCDC6-RET gene) is a lung cancer cell line, a TT cell line ([…]) is a thyroid cancer cell line, Ba/F3 CCDC6-RET (WT), Ba/F3 KIF5B-RET (WT), and Ba/F3 KIF5B-RET (V804M) are cells in which disease-related traits (CCDC6-RET, KIF5B-RET, and KIF5B-RET (V804M)) are introduced into Ba/F3 cells, and Ba/F3 (naive) is a cell which is not transduced."}, "[3]": {"test_system": "Ba/F3 KIF5B-RET (V804M) cells", "assay": "Cell proliferation inhibition, CellTiter-Glo", "type": "cell-based", "conditions": "Mus musculus, BaF3, 72 hours", "method": "as §1, §2"}, "[4]": {"test_system": "Ba/F3 KIF5B-RET (WT) cells", "assay": "Cell proliferation inhibition, CellTiter-Glo", "type": "cell-based", "conditions": "Mus musculus, BaF3, 72 hours", "method": "as §1, §2"}, "[5]": {"test_system": "Ba/F3 CCDC6-RET (WT) cells", "assay": "Cell proliferation inhibition, CellTiter-Glo", "type": "cell-based", "conditions": "BaF3/CCDC6-RET, 72 hours", "method": "as §1, §2"}, "[6]": {"test_system": "TT cells", "assay": "Cell proliferation inhibition, CellTiter-Glo", "type": "cell-based", "conditions": "Homo sapiens; TT thyroid cancer cell line, 72 hours", "method": "as §1, §2"}},
  "data": [
    {"smiles": "COc1ccc(CN2C3CC2CN(c2ccc(-c4nc(Nc5cc(C)[nH]n5)c5sccc5n4)cn2)C3)cn1", "note": "[Example 2, 2-(6-(6-((6-methoxypyridin-3-yl)methyl)-3,6-diazabicyclo [3.1.1]heptan-3-yl)pyridin-3-yl)-N-(5-methyl-1H-pyrazol-3-yl)thieno[3,2-d]pyrimidin-4-amine]", "values": [
      {"measurement": "IC50", "setting": "[1]", "result": 12, "unit": "nM"},
      {"measurement": "GI50", "setting": "[2]", "result": 4380, "unit": "nM"},
      {"measurement": "GI50", "setting": "[3]", "result": 14, "unit": "nM"},
      {"measurement": "GI50", "setting": "[4]", "result": 11, "unit": "nM"},
      {"measurement": "GI50", "setting": "[5]", "result": 49, "unit": "nM"},
      {"measurement": "GI50", "setting": "[6]", "result": 48, "unit": "nM"}
    ]},
    {"smiles": "COc1ccc(CN2C3CC2CN(c2ccc(-c4nc(Nc5cc(C(F)(F)F)[nH]n5)c5occc5n4)cn2)C3)cn1", "note": "[Example 4, 2-(6-(6-((6-methoxypyridin-3-yl)methyl)-3,6-diazabicyclo [3.1.1]heptan-3-yl)pyridin-3-yl)-N-(5-(trifluoromethyl)-1H-pyrazol-3-yl)furo[3,2-d]pyrimidin-4-amine]", "values": [
      {"measurement": "IC50", "setting": "[1]", "result": "> 15000", "unit": "nM"},
      {"measurement": "GI50", "setting": "[2]", "result": "> 15000", "unit": "nM"},
      {"measurement": "GI50", "setting": "[3]", "result": "> 15000", "unit": "nM"},
      {"measurement": "GI50", "setting": "[6]", "result": "> 15000", "unit": "nM"}
    ]},
    {"smiles": "COc1ccc(CN2C3CC2CN(c2ccc(-c4nc5c(c(Nc6cc(C)[nH]n6)n4)CCC5)cn2)C3)cn1", "note": "[Example 7, 2-(6-(6-((6-methoxypyridin-3-yl)methyl)-3,6-diazabicyclo [3.1.1]heptan-3-yl)pyridin-3-yl)-N-(5-methyl-1H-pyrazol-3-yl)-6,7-dihydro-5H-cyclopenta[d]py-rimidin-4-amine]", "values": [
      {"measurement": "IC50", "setting": "[1]", "result": 10, "unit": "nM"},
      {"measurement": "GI50", "setting": "[2]", "result": 6070, "unit": "nM"},
      {"measurement": "GI50", "setting": "[3]", "result": 7, "unit": "nM"},
      {"measurement": "GI50", "setting": "[4]", "result": 15, "unit": "nM"},
      {"measurement": "GI50", "setting": "[5]", "result": 45, "unit": "nM"},
      {"measurement": "GI50", "setting": "[6]", "result": 41, "unit": "nM"}
    ]}
  ]
}
